Measured values from paper PMC7423395, “Male-predominant galanin mediates androgen-dependent aggressive chases in medaka” (eLife, 2020).

How the values were obtained:
Type in all cases: in vivo, medaka (Oryzias latipes)
[1] = system: gal-expressing neurons in brain nuclei; experiment: Number of gal-expressing neurons by in situ hybridization in gonadectomized, sex steroid-treated fish; settings: 100 ng/ml by immersion for 6 days, n = 5 per group; for ovariectomy-induced increase in the number of gal-expressing neurons in pPMp, effect of steroid treatment: ovariectomized adult females
From the text: For both male and female fish, the gonad was removed under tricaine methane sulfonate anesthesia (0.02%) (Sigma-Aldrich, St. Louis, MO) through a small incision made in the ventrolateral abdominal wall. Immediately after removal of the gonad, the incision was sutured with nylon thread. Sham-operated fish received the same surgical treatment as gonadectomized fish, except for removal of the gonad. After a recovery period of 3 days in saline (0.9% (w/v) NaCl), gonadectomized fish were immersed in water containing 100 ng/ml of KT (Cosmo Bio, Tokyo, Japan) or E2 (Fujifilm Wako Pure Chemical Corporation), or vehicle (ethanol) alone for 6 days and then sampled. Sham-operated fish were treated with vehicle alone and used as controls. In another experiment, females of gal knockout lines with intact ovaries were treated with 100 ng/ml of KT by immersion in water for 10 days and then sampled. The sex steroid concentration used was based on previously reported serum steroid levels in medaka ([Foran et al., 2002]; [Foran et al., 2004]; [Tilton et al., 2003]).
The procedure for single-label in situ hybridization has been described previously ([Hiraki et al., 2012]). In brief, whole brains were fixed in 4% paraformaldehyde (PFA) and embedded in paraffin. Serial coronal sections of 10 μm thickness were cut and hybridized with the DIG-labeled galr1 or galr2 probe or the same DIG-labeled gal probe used for Northern blot analysis. Hybridization signals were visualized by using alkaline phosphatase-conjugated anti-DIG antibody and 5-bromo-4-chloro-3-indolyl phosphate/nitro blue tetrazolium (BCIP/NBT) substrate (Roche Diagnostics). Color development was allowed to proceed for more than 5 hr, or was stopped after 15 min (for quantification of gal expression in males that were castrated and treated with sex steroids) or 1 hr (for quantification of gal expression in females that were ovariectomized and treated with sex steroids) to avoid saturation. All sections in each comparison were processed simultaneously under the same conditions. For galr1, for which hybridization signals were detected throughout the brain and thus the specificity of the staining was somewhat uncertain, in situ hybridization was also performed using a sense probe under conditions identical to those used for the antisense probe. No signal was obtained by the sense probe, confirming that the signals obtained by the antisense probe represented specific staining.
To obtain quantitative data, the number of gal-expressing neurons in each brain nucleus was counted manually. […] In this case, the total number of the neurons in the nuclei was counted. Only intensively labeled neurons with a clearly defined cell body were counted to reduce, if not eliminate, the likelihood of double counting of the neurons split between sections. […]

adult female medaka = experiment: Aggressive behavior test of KT-treated females; settings: 100 ng/ml KT by immersion for 10 days, main effect of androgen treatment
From the text: (§1) For both male and female fish, the gonad was removed under tricaine methane sulfonate anesthesia (0.02%) (Sigma-Aldrich, St. Louis, MO) through a small incision made in the ventrolateral abdominal wall. Immediately after removal of the gonad, the incision was sutured with nylon thread. Sham-operated fish received the same surgical treatment as gonadectomized fish, except for removal of the gonad. After a recovery period of 3 days in saline (0.9% (w/v) NaCl), gonadectomized fish were immersed in water containing 100 ng/ml of KT (Cosmo Bio, Tokyo, Japan) or E2 (Fujifilm Wako Pure Chemical Corporation), or vehicle (ethanol) alone for 6 days and then sampled. […]
All behavioral procedures were conducted in 2-l rectangular tanks contained within a large recirculating water system with a constant influx of dechlorinated tap water. […] The partitions were then removed, and the fish were allowed to interact for 20 min while their behavior was recorded as described above. […]
In each test, wild-type, heterozygous, and homozygous siblings reared under the same conditions were used as the comparison group. The total number of each aggressive act (chase, fin display, circle, strike, and bite) performed by the four fish in the tank was counted manually from the video recordings. In addition, the total number of chases by the four fish in the tank was calculated for each 5 min interval during the test period. […]

[2] = system: gal expression in the whole brain; experiment: Whole-brain gal expression by real-time PCR in gonadectomized, sex steroid-treated fish; settings: castrated adult males, 100 ng/ml by immersion in water for 6 days, normalized to actb, versus castrated vehicle
From the text: as §1, with “sampled. Sham-operated fish were treated with vehicle alone and used as controls.” for “sampled.”
In cases where there were fewer than seven data points per experimental group, individual data points were plotted with the mean ± standard error of the mean (SEM); in cases where there were seven or more data points per experimental group, data were plotted as box and whisker plots by the Tukey method for clarity. In real-time PCR analysis, the expression level of gal (normalized to that of actb) in female whole brain was arbitrarily set to 1, and the relative difference was calculated in each data set to facilitate comparisons among data sets.

SMILES: C[C@]12CC(=O)[C@H]3[C@@H](CCC4=CC(=O)CC[C@@]43C)[C@@H]1CC[C@@H]2O [KT, 11-ketotestosterone]
- number of gal-expressing neurons in pPMp reduced by castration, effect of steroid treatment ([1]; castrated adult males): restored by KT treatment
- ovariectomy-induced increase in the number of gal-expressing neurons in pPMp, effect of steroid treatment [1]: further enhanced
- number of bites (adult female medaka; adult females of gal knockout lines Δ2 and Δ10, 20 min test): significantly increased
- number of chases (adult female medaka; adult females of gal knockout lines Δ2 and Δ10 with intact ovaries, four fish per tank, 20 min, n = 6 per group): significantly increased
- level of brain gal expression reduced by castration, effect of steroid treatment [2]: restored by treatment with KT

SMILES: C[C@]12CC[C@@H]3c4ccc(O)cc4CC[C@H]3[C@@H]1CC[C@@H]2O [E2, estradiol-17β]
- number of gal-expressing neurons in aPMp/pPPa ([1]; castrated adult males): increased
- ovariectomy-induced increase in the number of gal-expressing neurons in pPMp, effect of steroid treatment [1]: significantly attenuated
